Experimental data: patent publication US4556676A, “Antidepressant derivatives of trans-4-phenyl-1,2,3,4-tetrahydro-1-naphthalenamine” (priority 1980, dated 1985)
Counter-ions that a name gives are not always drawn. Like-named read-outs stand apart in the source and are kept apart here.

Tests used:
[1] = test system: synaptosomal uptake of dopamine (DA); assay: Blockade of synaptosomal uptake of dopamine (DA) in vitro, rat corpus striatum; assay type: biochemical, Sprague-Dawley CD male rats; settings: rat corpus striatum synaptosomes
Description: (§1) Sprague-Dawley CD male rats weighing 180-220 g. (Charles River Laboratories, Inc.; Wilmington, Mass.) were used in this procedure. A crude synaptosomal fraction of rat corpus striatum (for 5HT and DA uptake) or hypothalmus (for NE uptake) tissue was prepared by homogenizing tissue (25 ml./g. wet) in ice-cold 0.32M sucrose containing 1 mg./ml. glucose, 0.0001M EDTA and tris(hydroxymethyl)aminomethane to pH 7.4. The homogenate was centrifuged at 1000×g for 10 min. at 0°-4° C., the pellet discarded and the supernatant centrifuged at 17,000×g for 20 min. at 0°-4° C. The resulting pellet was resuspended in the ice-cold 0.32M sucrose pH 7.4 solution at 10 ml./g. original tissue (wet) for corpus striatum and 5 ml./g. original tissue (wet) for hypothalmus. […] Duplicate 0.1 ml. aliquots of the tissue suspension were incubated for 10 min. at 37° C. with 0.02 ml. of a solution containing a known quantity of the named test compound and 1.0 ml. of the incubation buffer containing additionally 1 mg./ml. glucose and 0.0001 mM labeled monoamine (^14 C-5HT, ^14 C-DA or ^3 H-NE). After incubation, the mixtures were filtered through 0.45 micron Millipore filters and the filters washed with the incubation buffer. […] Uptake was calculated as picomoles 5HT, DA or NE per mg. protein (protein was determined by measurement with Folin phenol reagent).

[2] = test system: synaptosomal uptake of norepinephrine (NE); assay: Blockade of synaptosomal uptake of norepinephrine (NE) in vitro, rat hypothalmus; assay type: biochemical, Sprague-Dawley CD male rats; settings: rat hypothalmus synaptosomes
Description: as §1

mice = assay: Reduction of behavioral despair in vivo (modified Porsolt mouse swim test); set-up: species or system Swiss-Webster CD male mice; settings: sc, read-out: MPE50
Description: A number of Swiss-Webster CD male mice weighing 25-30 g. (Charles River Laboratories, Inc.; Wilmington, Mass.) were housed under standard laboratory conditions for at least one week prior to experimentation. […] One hour later the mice were placed individually in 1 liter beakers containing 7 cm. of 25° C. water. Beginning at 2 min. after immersion, each mouse was observed every 30 sec. for the presence of immobility, characterized as floating motionless in the water. A total of ten observations were made, each being scored as "0=animal moving, swimming, attempting to escape" or "1=animal immobile". The number of positive observations for each mouse was then totaled and a mean immobility score calculated for the group of ten.

[3] = test system: 5-hydroxytryptophan-induced tremors; assay: Potentiation of 5-hydroxytryptophan-induced behavioral symptoms (tremors) in vivo; set-up: species or system Swiss-Webster CD male mice; settings: for ED50: Mus musculus; for ED50 (tremors): then 100 mg./kg. i.p. 5HTP one hour later, Hydrochloride
Description: The mice were rated for the presence of this symptom by a "blinded observer" at 10-20 min. after 5HTP treatment.

[4] = test system: synaptosomal uptake of serotonin (5HT); assay: Blockade of synaptosomal uptake of serotonin (5HT) in vitro, rat corpus striatum; assay type: biochemical, Sprague-Dawley CD male rats; settings: rat corpus striatum synaptosomes, 5HT uptake
Description: as §1

uptake of serotonin = settings: known drugs; cited from earlier work
[5] = po, 1 h, read-out: ED50 (tremors), mice, oral, then 100 mg./kg. i.p. 5HTP one hour later
[6] = mice, subcutaneous, 1 hour before test
[7] = mice, oral, no observed tremors at 32 mg./kg., highest dose tested, read-out: ED50 (tremors), footnoted

Row | Compound | IC50 [1] [nM] | IC50 [2] [nM] | also measured
1 | CN[C@@H]1CC[C@@H](c2cccc(C(F)(F)F)c2)c2ccccc21 (relative stereo) [Example 9, Trans-(1S)(1R)-N-methyl-4-(3-trifluoromethylphenyl)-1,2,3,4-tetrahydro-1-naphthalenamine Maleate] | 2600 | 260 | ED50 (mice; 1 h): > 32 mg/kg; ED50 [3, 5]: 10 to 32 mg/kg
2 | CN(C)[C@@H]1CC[C@@H](c2ccccc2)c2ccccc21 (relative stereo) [II, Trans-(1S)(1R)-N,N-- dimethyl-4-phenyl-1,2,3,4-tetrahydro-1-naphthalenamine hydrochloride, reference compound] | 840 | 140 | –
3 | CN(C)[C@@H]1CC[C@@H](c2cccc(C(F)(F)F)c2)c2ccccc21 (relative stereo) [Example 18, Trans-(1S)(1R)-N,N-dimethyl-4-(3-trifluoromethylphenyl)-1,2,3,4-tetrahydro-1-naphthalenamine Maleate] | 6100 | 1400 | IC50 [4]: 220 nM
4 | CN[C@@H]1CC[C@@H](c2ccc(Cl)cc2)c2ccc(Cl)cc21 (relative stereo) [Example 11, Trans-(1S)(1R)-N-methyl-4-(4-chlorophenyl)-7-chloro-1,2,3,4-tetrahydro-1-naphthalenamine Hydrochloride] | 45 | 28 | IC50 [4]: 160 nM; ED50 (mice; [6]): 6.4 mg/kg
5 | CN[C@@H]1CC[C@@H](c2ccc(C(F)(F)F)cc2)c2ccccc21 (relative stereo) [Example 8] | 4400 | 690 | ED50 (mice; [6]): > 10 mg/kg; ED50 [3, 5]: 10 to 32 mg/kg
6 | N[C@@H](Cc1c[nH]c2ccc(O)cc12)C(=O)O [Example 5HTP, 5-hydroxytryptophan, reference compound] | – | – | behavioral effects of 5HTP by itself ([3]; mice, 100 mg./kg. i.p. 5HTP alone): no clear behavioral effects
7 | CN[C@@H]1CC[C@@H](c2ccc(F)cc2)c2ccccc21 (relative stereo) [Example 7, Trans-(1S)(1R)-N-methyl-4-(4-fluorophenyl)-1,2,3,4-tetrahydro-1-naphthalenamine Hydrochloride] | 220 | 27 | ED50 (mice; 1 h): 2.3 mg/kg; ED50 ([3]; po, read-out: ED50 (tremors), footnoted, mice, oral, no observed tremors at 32 mg./kg., highest dose tested): > 32 mg/kg
8 | CN[C@@H]1CC[C@@H](c2ccc(Cl)c(C(F)(F)F)c2)c2ccccc21 (relative stereo) [Example 10] | 7300 | – | ED50 (mice; [6]): < 32 mg/kg; ED50 [3, 5]: 10 to 32 mg/kg
9 | CN[C@@H]1CC[C@@H](c2ccc(Br)cc2)c2ccccc21 (relative stereo) [Example 12, Trans-(1S)(1R)-N-methyl-4-(4-bromophenyl)-1,2,3,4-tetrahydro-1-naphthalenamine Hydrochloride] | 80 | 29 | IC50 [4]: 90 nM
10 | CN[C@@H]1CC[C@@H](c2ccc(Cl)c(Cl)c2)c2ccccc21 (relative stereo) [Example 1, Trans-(1S)(1R)-N-methyl-4-(3,4-diclorophenyl)-1,2,3,4-tetrahydro-1-naphthalenamine Hydrochloride] | – | – | ED50 (mice; 1 h): 1.5 mg/kg; ED50 ([3]; po, 1 h, read-out: ED50 (oral dosage level at which tremors elicited), mice, oral, then 100 mg./kg. i.p. 5HTP one hour later, tremors): 3.2 to 10 mg/kg
11 | CN[C@@H]1CC[C@@H](c2ccc(Cl)cc2)c2ccccc21.Cl (relative stereo) [Example 5, Trans-N-methyl-4-(4-chlorophenyl)-1,2,3,4-tetrahydro-1-naphthalenamine Hydrochloride] | – | – | ED50 [3, 7]: > 32 mg/kg
12 | CN(C)C/C=C(/c1ccc(Br)cc1)c1cccnc1 [zimelidine] | – | – | selective block of uptake of serotonin (compared to norepinephrine blockade) (uptake of serotonin): selectively block the uptake of serotonin
13 | CN[C@@H]1CC[C@@H](c2cccc(OC)c2)c2ccccc21 (relative stereo) [Example 15] | 530 | 60 | IC50 [4]: 340 nM
14 | CN[C@@H]1CC[C@@H](c2ccccc2OC)c2ccccc21 (relative stereo) [Example 14] | 5700 | 480 | IC50 [4]: 4500 nM; ED50 (mice; [6]): > 32 mg/kg; ED50 [3, 7]: > 32 mg/kg
15 | CN[C@@H]1CC[C@@H](c2ccccc2)c2ccccc21 (relative stereo) [I, Trans-(1S)(1R)-N-- methyl-4-phenyl-1,2,3,4-tetrahydro-1-naphthalenamine hydrochloride, reference compound] | 210 | 37 | IC50 [4]: 1500 nM
16 | CN[C@@H]1CC[C@@H](c2ccc(Cl)cc2)c2ccccc21.Cl (relative stereo) [Example 6, Trans-N-methyl-4-(4-chlorophenyl)-1,2,3,4-tetrahydro-1-naphthalenamine Hydrochloride] | – | – | ED50 (mice; [6]): 0.88 mg/kg; ED50 (tremors) ([3]; mice, oral): 3.2-10 mg./kg. - oral
17 | CN[C@@H]1CC[C@@H](c2ccc(Cl)cc2)c2ccc(OC)cc21 (relative stereo) [Example 17, Trans-(1S)(1R)-N-methyl-4-(4-chlorophenyl)-7-methoxy-1,2,3,4-tetrahydro-1-naphthalenamine Hydrochloride] | 42 | 17 | IC50 [4]: 150 nM
18 | CN(C)[C@@H]1CC[C@@H](c2ccc(Cl)c(Cl)c2)c2ccccc21 (relative stereo) [Example 20a] | 170 | – | –
19 | CN[C@@H]1CC[C@@H](c2ccc(OC)cc2)c2ccccc21 (relative stereo) [Example 13, Trans-(1S)(1R)-N-methyl-4-(4-methoxyphenyl)-1,2,3,4-tetrahydro-1-naphthalenamine Hydrochloride] | 400 | 150 | –
20 | CN[C@@H]1CC[C@@H](c2ccc(Cl)cc2Cl)c2ccccc21 (relative stereo) [Example 16, Trans-(1S)(1R)-N-methyl-4-(2,4-dichlorophenyl)-1,2,3,4-tetrahydro-1-naphthalenamine Hydrochloride] | 6100 | – | –
21 | CN[C@@H]1CC[C@@H](c2ccc(Cl)cc2)c2ccccc21.Cl (relative stereo) [Example 4, Trans-N-methyl-4-(4-chlorophenyl)-1,2,3,4-tetrahydro-1-naphthalenamine Hydrochloride] | – | – | IC50 ([1]; Hydrochloride): 110 nM; ED50 (tremors) ([3]; mice, oral): 10-32 mg./kg. - oral
22 | COCCCC/C(=N\OCCN)c1ccc(C(F)(F)F)cc1 [fluvoxamine] | – | – | selective block of uptake of serotonin (compared to norepinephrine blockade) (uptake of serotonin): selectively block the uptake of serotonin
23 | CN(C)[C@@H]1CC[C@@H](c2ccc(Cl)cc2)c2ccccc21 (relative stereo) [Example 20] | 380 | 130 | –
24 | CN(C)[C@@H]1CC[C@@H](c2ccc(C(F)(F)F)cc2)c2ccccc21 (relative stereo) [Example 19] | 9800 | 4700 | ED50 [3, 5]: 3.2 to 10 mg/kg
